From PMC11876671, “Investigating blood–brain barrier penetration and neurotoxicity of natural products for central nervous system drug development” (Scientific Reports, 2025)
Like-named read-outs stand apart in the source and are kept apart here.

Key:
[1] = test system: GFP-labeled iPSC-derived human cortical glutamatergic neurons; assay: cells; type: cell-based; details: for AC50: Table S1, total neurite length, 48 hr, head prints no unit, µM per Table 1 and Fig. 5, read-out: TNL AC50 (48 hr)
[2] = in vitro; details: PAMPA, PAMPA-BBB Pe
[3] = Table S2: compounds exhibiting moderate to high PAMPA-BBB permeability
[4] = Table S1, 60 min, room temperature, 0.05 mM

Row | Compound | AC50 ([1]; Homo sapiens, Neuron) | Papp [2, 4] | also measured
1 | COc1ccc(/C=C/C(=O)c2ccc(O)cc2O)cc1OC [2',4'-DIHYDROXY-3,4-DIMETHOXYCHALCONE] | 5.97 µM | 312 ×10⁻⁶ cm/s | PAMPA-BBB Pe [3]: 312 10^-6 cm/sec
2 | COc1cc(C)cc(O)c1 [3-methoxy-5-methylphenol] | 13.4 µM | 49.7 ×10⁻⁶ cm/s | 
3 | C/C(=C\COc1c2ccoc2cc2oc(=O)ccc12)CCC(O)C(C)(C)O (centres unmarked) [6,7-dihydroxy Bergamottin] | 6.03 µM | 54.7 ×10⁻⁶ cm/s | 
4 | COC1=C[C@@]23CCN(C)[C@H](Cc4ccc(OC)c(O)c42)C3=CC1=O [(-)-Sinoacutine] | 15.2 µM | 11.5 ×10⁻⁶ cm/s | 
5 | CSC(=S)NCc1c[nH]c2ccccc12 [BRASSININ] | 6.34 µM | 267 ×10⁻⁶ cm/s | PAMPA-BBB Pe [3]: 267 10^-6 cm/sec
6 | COC(=O)[C@@H]1[C@@H]2C[C@H]3c4[nH]c5ccccc5c4CCN3C[C@@H]2CC[C@@H]1O [Beta-yohimbine] | 11.8 µM |  | Papp [2]: 41.8 ×10⁻⁶ cm/s
7 | OCC=Cc1ccccc1 [Cinnamyl alcohol] | 5.95 µM | 97.5 ×10⁻⁶ cm/s | PAMPA-BBB Pe [3]: 97 10^-6 cm/sec; Papp [2, 3]: 69 ×10⁻⁶ cm/s
8 | S=c1ccss1 [D3T, 3H-1,2-dithiole-3-thione] | 51.2 µM | 97.8 ×10⁻⁶ cm/s | 
9 | COc1cc2c(c(OC)c1OC)-c1c(cc(OC)c(OC)c1OC)C[C@H](C)[C@H](C)C2 [Deoxyschizandrin] | 15.9 µM | 171 ×10⁻⁶ cm/s | 
10 | O=c1c(-c2ccc(O)cc2)coc2cc(O)cc(O)c12 [Genistein] | 33.4 µM | 35.4 ×10⁻⁶ cm/s | Papp [2, 3]: 35 ×10⁻⁶ cm/s
11 | CCOc1ccc(O)cc1 [Hydroquinone monoethyl ether] | 13.6 µM | 35 ×10⁻⁶ cm/s | 
12 | CC(C)=CCOc1c2occc2cc2ccc(=O)oc12 [Imperatorin] | 16.7 µM | 160 ×10⁻⁶ cm/s | 
13 | CO[C@@H]1[C@@H](O[C@@H]2O[C@H](C)[C@@H](O[C@H]3C[C@@](C)(O)[C@@H](OC(=O)CC(C)C)[C@H](C)O3)[C@H](N(C)C)[C@H]2O)[C@@H](CC=O)C[C@@H](C)C(=O)/C=C/[C@@H]2O[C@H]2C[C@@H](C)OC(=O)C[C@H]1OC(C)=O [Magnamycin A/Carbomycin A] | 27.1 µM | 31.9 ×10⁻⁶ cm/s | Papp [2, 3]: 32 ×10⁻⁶ cm/s
14 | CCCCCC(=O)Cc1cc(O)cc(O)c1C(=O)Oc1cc(CC(=O)CCCCC)c(C(=O)O)c(OC)c1 [NCGC00095554-03] | 6.66 µM |  | PAMPA-BBB Pe [4]: >1000 10^-6 cm/sec; PAMPA-BBB Pe [3]: >1000 10^-6 cm/sec
15 | CC1(C)OC1COc1c2occc2cc2ccc(=O)oc12 (centres unmarked) [NCGC00160222-01] | 24.5 µM | 210 ×10⁻⁶ cm/s | 
16 | CN1CCC2=C[C@@H](O)[C@@H]3OC(=O)c4cc5c(cc4[C@H]3C21)OCO5 (some centres unmarked) [NCGC00160234-01] | 2.22 µM | 22.3 ×10⁻⁶ cm/s | Papp [2, 3]: 22 ×10⁻⁶ cm/s
17 | CC(=O)c1c(O)cccc1O [NCGC00166008-01] | 1.98 µM | 44.7 ×10⁻⁶ cm/s | 
18 | CC1(C)C=Cc2c(ccc(C(=O)/C=C/c3ccccc3)c2O)O1 [NCGC00187466-01] | 2.18 µM | 10.2 ×10⁻⁶ cm/s | 
19 | c1cc2c(cc1[C@H]1OC[C@H]3[C@@H]1CO[C@@H]3c1ccc3c(c1)OCO3)OCO2 [Sesamin] | 14.2 µM | 211 ×10⁻⁶ cm/s | Papp [2, 3]: 211 ×10⁻⁶ cm/s
20 | O=c1c2ccccc2oc2ccccc12 [Xanthenone] | 18.6 µM | 173 ×10⁻⁶ cm/s | 
21 | Cn1cccc1-c1cccnc1 [beta-NICOTYRINE] | 8.46 µM | 102 ×10⁻⁶ cm/s | 
22 | CC(=O)[C@H]1CC[C@H]2[C@@H]3CCC4=CC(=O)CC[C@]4(C)[C@H]3CC[C@]12C [progesterone, reference compound] |  |  | PAMPA-BBB permeability category (category in words): high permeability
23 | C=C(C)[C@H]1Cc2c(ccc3c2O[C@@H]2COc4cc(OC)c(OC)cc4[C@@H]2C3=O)O1 [rotenone, reference compound] |  |  | inhibition of cortical neurite outgrowth (total neurite length) ([1]; 24 and 48 h treatment, in words): inhibited cortical neurite outgrowth in a concentration-dependent manner
24 | Desoxycortone |  |  | AC50 [1]: 33.5 µM; PAMPA-BBB Pe [4]: 65.13 10^-6 cm/sec
25 | \LYCORINE HYDROCHLORIDE |  |  | PAMPA-BBB Pe(10^-6 cm/sec) (Table S3: compounds exhibiting low PAMPA-BBB permeability): 3.2 10^-6 cm/sec
